Measured values: ChEMBL document CHEMBL1201862, “PubChem BioAssay data set” (2004)
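Five compound concentrations were applied to cells in 96-well plates for 48 hours; endpoints were derived by simple linear interpolation of the resulting dose-response curve. GI50: concentration for 50% inhibition of growth.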 The source made the active and inactive calls. No stated cut-off is given here; in the data, active = GI50 up to about 1.1 µM and inactive = higher.

Tests used:
Test in all cases: growth of human tumour cells (NCI), 48 h
[1] = system: MCF7
[2] = system: HCT-15
[3] = system: OVCAR-3
[4] = system: SR
[5] = system: PC-3
[6] = system: LOX IMVI
[7] = system: CCRF-CEM
[8] = system: NCI-H460
[9] = system: CAKI-1
[10] = system: MDA-MB-435
[11] = system: Malme-3M
[12] = system: UACC-257
[13] = system: HCT-116
[14] = system: SW-620
[15] = system: NCI-H522
[16] = system: OVCAR-5
[17] = system: A549
[18] = system: K562
[19] = system: SK-MEL-28
[20] = system: DU-145
[21] = system: EKVX
[22] = system: SK-MEL-2
[23] = system: SK-MEL-5
[24] = system: M14
[25] = system: SK-OV-3
[26] = system: SNB-75
[27] = system: SN12C
[28] = system: IGROV-1
[29] = system: NCI/ADR-RES
[30] = system: COLO 205
[31] = system: HT-29
[32] = system: TK-10
[33] = system: NCI-H23
[34] = system: MDA-MB-231
[35] = system: RPMI-8226
[36] = system: HL-60
[37] = system: OVCAR-8
[38] = system: MDA-N
[39] = system: SNB-19
[40] = system: UACC-62
[41] = system: T47D
[42] = system: SF-268
[43] = system: MOLT-4
[44] = system: ACHN
[45] = system: UO-31
[46] = system: RXF 393
[47] = system: KM12
[48] = system: U-251
[49] = system: 786-0
[50] = system: SF-295
[51] = system: A498
[52] = system: HOP-62
[53] = system: BT-549
[54] = system: OVCAR-4
[55] = system: HOP-92
[56] = system: SF-539
[57] = system: Hs-578T
[58] = system: NCI-H226

O=c1c2ccccc2sc2c(CO)ccc(NCCN3CCCCC3)c12 was tested, and the GI50 [1] was 2.99 µM (inactive), the GI50 [2] was 3.56 µM and the GI50 [3] was 2.22 µM (inactive). The GI50 [4] was 0.497 µM (active), the GI50 [5] was 4.31 µM (inactive) and the GI50 [6] was 2.86 µM (inactive). The GI50 [7] was 1.15 µM (inactive), the GI50 [8] was 2.68 µM (inactive) and the GI50 [9] was 3.45 µM (inactive). For the same compound, the GI50 [10] was 2.64 µM (inactive), the GI50 [11] was 2.24 µM (inactive) and the GI50 [12] was 2.07 µM (inactive). The GI50 [13] was 2.38 µM (inactive), the GI50 [14] was 2.25 µM (inactive) and the GI50 [15] was 1.58 µM (inactive). For the same compound, the GI50 [16] was 6.35 µM (inactive), the GI50 [17] was 3.46 µM (inactive) and the GI50 [18] was 2 µM (inactive). For the same compound, the GI50 [19] was 2.9 µM (inactive), the GI50 [20] was 2.54 µM (inactive) and the GI50 [21] was 4.66 µM (inactive). For the same compound, the GI50 [22] was 4.47 µM (inactive), the GI50 [23] was 1.69 µM (inactive) and the GI50 [24] was 1.93 µM (inactive). The GI50 [25] was 3.91 µM (inactive), the GI50 [26] was 5.77 µM (inactive) and the GI50 [27] was 3.27 µM (inactive). The GI50 [28] was 3.93 µM (inactive), the GI50 [29] was 2.64 µM (inactive) and the GI50 [30] was 1.92 µM (inactive). The GI50 [31] was 2.94 µM (inactive), the GI50 [32] was 3.48 µM (inactive) and the GI50 [33] was 2.96 µM (inactive). The GI50 [34] was 5.48 µM (inactive), the GI50 [35] was 1.91 µM (inactive) and the GI50 [36] was 3.08 µM (inactive). For the same compound, the GI50 [37] was 3.56 µM (inactive), the GI50 [38] was 3.08 µM (inactive) and the GI50 [39] was 4.73 µM (inactive). The GI50 [40] was 4.33 µM (inactive), the GI50 [41] was 5.25 µM (inactive) and the GI50 [42] was 3.32 µM (inactive). For the same compound, the GI50 [43] was 1.04 µM (active), the GI50 [44] was 2.39 µM (inactive) and the GI50 [45] was 1.88 µM (inactive). The GI50 [46] was 2.39 µM (inactive), the GI50 [47] was 3.55 µM (inactive) and the GI50 [48] was 3.79 µM (inactive). The GI50 [49] was 2.47 µM (inactive), the GI50 [50] was 3.61 µM (inactive) and the GI50 [51] was 3.15 µM (inactive). The GI50 [52] was 3.24 µM (inactive), the GI50 [53] was 10.8 µM (inactive) and the GI50 [54] was 2.48 µM (inactive). The GI50 [55] was 5.83 µM (inactive), the GI50 [56] was 5 µM (inactive) and the GI50 [57] was 4.38 µM (inactive). The GI50 [58] was 2.85 µM (inactive).
